Biological target: LRRK2 (Homo sapiens, UniProt Q5S007)
Experiment: LRRK2-LRRK2 G2019S-Assay (LanthaScreen Eu Kinase Binding Assay)
Conditions: 5 nM LRRK2, 10 nM tracer 236, 2 nM EU-Anti-GST antibody, 1 h at RT; read-out: LRRK2 Activities: IC50
Procedure: In the assay LanthaScreen™ Eu Kinase Binding Assay by Invitrogen Corporation (Carlsbad) the effect of invention of a compound on the phosphorylation is determined by measurement of fluorescence intensity emission ratio based on the binding and displacement of a proprietary, Alexa Fluor® 647-labeled, ATP-competitive kinase inhibitor scaffold (kinase tracer) to the kinase of interest. Binding of the tracer to the kinase is detected using a europium-labeled anti-tag antibody, which binds to the kinase of interest. Simultaneous binding of both the tracer and antibody to the kinase results in a high degree of FRET (fluorescence resonance energy transfer) from the europium (Eu) donor fluorophore to the Alexa Fluor® 647 acceptor fluorophore on the kinase tracer. Binding of an inhibitor to the kinase competes for binding with the tracer, resulting in a loss of FRET. The fluorescence intensity ratio is directly proportional to the amount of peptide phosphorylation.
To the wells of an 384 well small volume plate (Greiner, Frickenhausen) are added (i) the compound under test in 5% DMSO/distilled water (5 μl), (ii) 5 μl of the kinase antibody mixture resulting in a final concentration 5 nM LRRK2 or their mutants, 2 nM EU-Anti-GST antibody in 1× kinase buffer A. The reaction was started with addition of (iii) 5 μl resulting in a final concentration of 10 nM tracer 236. The assay plate was incubated at RT for 1 h and fluorescence intensity readings were collected using a TECAN M1000 at two wavelengths of λex 340/λem 615 nm and λex 340/λem 665 nm with a delay time of 100 μs and an integration time of 200 μs after 60 minutes. The emission ratio was calculated by division of the acceptor/tracer emission ([…]) by the antibody/donor emission ([…]). The inhibitor concentration was plotted versus the emission ratio to determine the IC50 using XLFit 5.0 (IDBS, Guildford) to fit to a sigmoidal dose response curve with a variable slope.

LRRK2, sequence (Q5S007 970-2527 limits assumed): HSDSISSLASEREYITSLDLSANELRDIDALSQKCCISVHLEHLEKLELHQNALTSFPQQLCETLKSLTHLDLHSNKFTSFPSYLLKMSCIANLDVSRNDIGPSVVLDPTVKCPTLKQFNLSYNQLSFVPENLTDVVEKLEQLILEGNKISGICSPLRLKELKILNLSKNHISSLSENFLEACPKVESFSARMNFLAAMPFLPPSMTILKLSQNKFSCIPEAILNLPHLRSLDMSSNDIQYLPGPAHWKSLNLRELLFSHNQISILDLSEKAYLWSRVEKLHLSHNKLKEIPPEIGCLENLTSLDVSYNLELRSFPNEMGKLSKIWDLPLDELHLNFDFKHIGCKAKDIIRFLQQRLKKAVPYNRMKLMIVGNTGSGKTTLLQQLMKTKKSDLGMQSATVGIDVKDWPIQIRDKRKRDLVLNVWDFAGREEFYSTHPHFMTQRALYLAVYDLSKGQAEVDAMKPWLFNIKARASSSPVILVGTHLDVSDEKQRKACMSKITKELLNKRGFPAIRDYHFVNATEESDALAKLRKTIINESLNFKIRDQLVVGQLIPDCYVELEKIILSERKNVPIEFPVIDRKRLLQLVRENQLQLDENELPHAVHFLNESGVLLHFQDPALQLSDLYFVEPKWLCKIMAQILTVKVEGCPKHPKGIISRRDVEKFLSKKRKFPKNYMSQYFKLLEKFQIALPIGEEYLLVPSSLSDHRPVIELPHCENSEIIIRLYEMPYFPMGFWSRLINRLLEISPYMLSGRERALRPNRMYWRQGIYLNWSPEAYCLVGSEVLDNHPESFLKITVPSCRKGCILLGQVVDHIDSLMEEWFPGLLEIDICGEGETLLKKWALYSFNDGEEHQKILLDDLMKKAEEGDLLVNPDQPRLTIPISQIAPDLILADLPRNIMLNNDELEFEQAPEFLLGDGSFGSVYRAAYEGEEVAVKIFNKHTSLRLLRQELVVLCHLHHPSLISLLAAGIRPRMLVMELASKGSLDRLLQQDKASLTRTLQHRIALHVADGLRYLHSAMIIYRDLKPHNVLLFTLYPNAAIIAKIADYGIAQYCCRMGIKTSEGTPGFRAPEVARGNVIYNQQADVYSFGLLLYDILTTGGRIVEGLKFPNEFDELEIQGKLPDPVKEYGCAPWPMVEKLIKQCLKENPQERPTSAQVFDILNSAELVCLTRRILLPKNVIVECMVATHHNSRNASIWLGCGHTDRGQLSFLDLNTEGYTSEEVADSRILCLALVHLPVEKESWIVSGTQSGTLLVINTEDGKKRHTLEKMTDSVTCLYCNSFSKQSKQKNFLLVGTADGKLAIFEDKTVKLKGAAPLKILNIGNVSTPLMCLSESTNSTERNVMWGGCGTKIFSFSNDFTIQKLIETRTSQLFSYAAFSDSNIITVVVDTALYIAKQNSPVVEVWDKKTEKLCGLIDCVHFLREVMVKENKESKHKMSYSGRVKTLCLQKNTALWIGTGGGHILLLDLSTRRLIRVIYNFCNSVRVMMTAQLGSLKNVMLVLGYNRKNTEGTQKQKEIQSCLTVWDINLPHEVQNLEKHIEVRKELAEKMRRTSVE

For CC(=O)N1CCN(c2ccc(Nc3nc4c(F)cccc4c4cn[nH]c34)cc2)CC1 [Example 53, 1-(4-(4-((6-fluoro-3H-pyrazolo[3,4-c]quinolin-4-yl)amino)phenyl)piperazin-1-yl)ethan-1-one], the IC50 was 0.1 to 1 µM.

With COc1cccc2nc(Nc3ccc(-c4ncco4)cc3)c3[nH]ncc3c12 [Example 58, 9-methoxy-N-(4-(oxazol-2-yl)phenyl)-3H-pyrazolo[3,4-c]quinolin-4-amine] the IC50 was 0.1 to 1 µM.

In the case of COc1cccc2nc(Nc3ccc(N4CCN(S(C)(=O)=O)CC4)cc3)c3[nH]ncc3c12 [Example 59, 9-methoxy-N-(4-(4-(methylsulfonyl)piperazin-1-yl)phenyl)-3H-pyrazolo[3,4-c]quinolin-4-amine], the IC50 is reported as 0.01 to 0.1 µM.

Compound COc1cccc2nc(Nc3ccc(N4CCOCC4=O)cc3)c3[nH]ncc3c12 [Example 60, 4-(4-((9-methoxy-3H-pyrazolo[3,4-c]quinolin-4-yl)amino)phenyl)morpholin-3-one] has an IC50 of 0.1 to 1 µM.

In the case of COc1cccc2nc(Nc3ccc(C(=O)N4CCCC4)cc3)c3[nH]ncc3c12 [Example 61, (4-((9-methoxy-3H-pyrazolo[3,4-c]quinolin-4-yl)amino)phenyl)(pyrrolidin-1-yl)methanone], the IC50 is reported as 0.01 to 0.1 µM.

With COc1ccc(Nc2nc3ccc(S(C)(=O)=O)cc3c3cn[nH]c23)cc1OC [Example 63, N-(3,4-dimethoxyphenyl)-8-(methylsulfonyl)-3H-pyrazolo[3,4-c]quinolin-4-amine] the IC50 was 0.01 to 0.1 µM.

Work on COc1cccc2nc(Nc3ccc(N4CCCC4=O)cc3)c3[nH]ncc3c12 [Example 68, 1-(4-((9-methoxy-3H-pyrazolo[3,4-c]quinolin-4-yl)amino)phenyl)pyrrolidin-2-one] yielded an IC50 of 0.01 to 0.1 µM.

COc1cccc2nc(Nc3ccc(C(=O)N4CCN(C)CC4)cc3)c3[nH]ncc3c12 [Example 69, (4-((9-methoxy-3H-pyrazolo[3,4-c]quinolin-4-yl)amino)phenyl)(4-methylpiperazin-1-yl)methanone] was tested, and the IC50 was 0.01 to 0.1 µM.

Work on COc1cccc2nc(Nc3ccc(N4CCOCC4)c(C#N)c3)c3[nH]ncc3c12 [Example 71, 5-((9-methoxy-3H-pyrazolo[3,4-c]quinolin-4-yl)amino)-2-morpholinobenzonitrile] yielded an IC50 of 0.01 to 0.1 µM.

COc1ccc(Nc2nc3ccc(C)cc3c3cn[nH]c23)cc1OC [Example 72, N-(3,4-dimethoxyphenyl)-8-methyl-3H-pyrazolo[3,4-c]quinolin-4-amine] gave an IC50 of 0.1 to 1 µM.

With COc1ccc2nc(Nc3ccc(-c4nnc(S)o4)cc3)c3n[nH]cc3c2c1 [Example 84, 5-(4-((8-methoxy-2H-pyrazolo[3,4-c]quinolin-4-yl)amino)phenyl)-1,3,4-oxadiazole-2-thiol] the IC50 was 0.01 to 0.1 µM.

In the case of COc1ccc2nc(Nc3ccc(N(C)C)nc3)c3n[nH]cc3c2c1 [Example 87, N5-(8-methoxy-2H-pyrazolo[3,4-c]quinolin-4-yl)-N2,N2-dimethylpyridine-2,5-diamine], the IC50 is reported as 0.1 to 1 µM.

For Cc1cccc2nc(Nc3cccc(S(C)(=O)=O)c3)c3[nH]ncc3c12 [Example 88, 9-methyl-N-(3-(methylsulfonyl)phenyl)-3H-pyrazolo[3,4-c]quinolin-4-amine], the IC50 was 0.1 to 1 µM.

With Cc1cccc2nc(Nc3ccc(N4CCOCC4)cc3)c3[nH]ncc3c12 [Example 89, 9-methyl-N-(4-morpholinophenyl)-3H-pyrazolo[3,4-c]quinolin-4-amine] the IC50 was 0.1 to 1 µM.

COc1ccc2nc(Nc3ccc(N4CCOCC4)c(S(C)(=O)=O)c3)c3n[nH]cc3c2c1 [Example 90, 8-methoxy-N-(3-(methylsulfonyl)-4-morpholinophenyl)-2H-pyrazolo[3,4-c]quinolin-4-amine] showed an IC50 of 0.1 to 1 µM.

Work on COc1ccc2nc(Nc3ccc(N4CCN(C(C)=O)CC4)nc3)c3n[nH]cc3c2c1 [Example 91, 1-(4-(5-((8-methoxy-2H-pyrazolo[3,4-c]quinolin-4-yl)amino)pyridin-2-yl)piperazin-1-yl)ethan-1-one] yielded an IC50 of 0.1 to 1 µM.

Compound CS(=O)(=O)c1cccc2nc(Nc3ccc(N4CCOCC4)cc3)c3[nH]ncc3c12 [Example 92, 9-(methylsulfonyl)-N-(4-morpholinophenyl)-3H-pyrazolo[3,4-c]quinolin-4-amine] has an IC50 of less than 0.01 µM.

CC(=O)N1CCN(c2ccc(Nc3nc4cccc(S(C)(=O)=O)c4c4cn[nH]c34)cc2)CC1 [Example 93, 1-(4-(4-((9-(methylsulfonyl)-3H-pyrazolo[3,4-c]quinolin-4-yl)amino)phenyl)piperazin-1-yl)ethan-1-one] showed an IC50 of 0.01 to 0.1 µM.

For CS(=O)(=O)c1cccc2nc(Nc3ccc(C(=O)N4CCOCC4)cc3)c3[nH]ncc3c12 [Example 94, (4-((9-(methylsulfonyl)-3H-pyrazolo[3,4-c]quinolin-4-yl)amino)phenyl)(morpholino)methanone], the IC50 was 0.1 to 1 µM.

Compound CC(C)(C)N1CCN(c2ccc(Nc3nc4cccc(S(C)(=O)=O)c4c4cn[nH]c34)cc2)CC1 [Example 95, N-(4-(4-(tert-butyl)piperazin-1-yl)phenyl)-9-(methylsulfonyl)-3H-pyrazolo[3,4-c]quinolin-4-amine] has an IC50 of 0.1 to 1 µM.

Work on COc1ccc2nc(Nc3ccc(N4CCC(N5CCN(C)CC5)CC4)nc3)c3n[nH]cc3c2c1 [Example 96, 8-methoxy-N-(6-(4-(4-methylpiperazin-1-yl)piperidin-1-yl)pyridin-3-yl)-2H-pyrazolo[3,4-c]quinolin-4-amine] yielded an IC50 of 0.1 to 1 µM.

CN1CCN(C2CCN(c3ccc(Nc4nc5cccc(S(C)(=O)=O)c5c5cn[nH]c45)cc3)CC2)CC1 [Example 97, N-(4-(4-(4-methylpiperazin-1-yl)piperidin-1-yl)phenyl)-9-(methylsulfonyl)-3H-pyrazolo[3,4-c]quinolin-4-amine] gave an IC50 of 0.1 to 1 µM.

COc1ccc(Nc2nc3cccc(S(C)(=O)=O)c3c3cn[nH]c23)cc1OC [Example 99, N-(3,4-dimethoxyphenyl)-9-(methylsulfonyl)-3H-pyrazolo[3,4-c]quinolin-4-amine] showed an IC50 of 0.1 to 1 µM.

CN1CCN(c2ccc(Nc3nc4cccc(S(C)(=O)=O)c4c4cn[nH]c34)cn2)CC1 [Example 100, N-(6-(4-methylpiperazin-1-yl)pyridin-3-yl)-9-(methylsulfonyl)-3H-pyrazolo[3,4-c]quinolin-4-amine] showed an IC50 of 0.1 to 1 µM.

COc1ccc2nc(Nc3cnn(C)c3C)c3n[nH]cc3c2c1 [Example 104, N-(1,5-dimethyl-1H-pyrazol-4-yl)-8-methoxy-2H-pyrazolo[3,4-c]quinolin-4-amine] showed an IC50 of 0.1 to 1 µM.

With COc1ccc2nc(Nc3cn(C)nc3C)c3n[nH]cc3c2c1 [Example 105, N-(1,3-dimethyl-1H-pyrazol-4-yl)-8-methoxy-2H-pyrazolo[3,4-c]quinolin-4-amine] the IC50 was 0.1 to 1 µM.

CS(=O)(=O)c1cccc2nc(Nc3ccc(NCCO)cc3)c3[nH]ncc3c12 [Example 106, 2-((4-((9-(methylsulfonyl)-3H-pyrazolo[3,4-c]quinolin-4-yl)amino)phenyl)amino)ethan-1-ol] gave an IC50 of 0.1 to 1 µM.

CS(=O)(=O)c1cccc(Nc2nc3cccc(S(C)(=O)=O)c3c3cn[nH]c23)c1 [Example 107, 9-(methylsulfonyl)-N-(3-(methylsulfonyl)phenyl)-3H-pyrazolo[3,4-c]quinolin-4-amine] was tested, and the IC50 was 0.1 to 1 µM.

COc1ccc2nc(Nc3cnn(C4CCN(C)CC4)c3)c3n[nH]cc3c2c1 [Example 111, 8-methoxy-N-(1-(1-methylpiperidin-4-yl)-1H-pyrazol-4-yl)-2H-pyrazolo[3,4-c]quinolin-4-amine] was tested, and the IC50 was 0.01 to 0.1 µM.

Work on COc1ccc2nc(Nc3cnn(C4CCN(C(C)=O)CC4)c3)c3n[nH]cc3c2c1 [Example 112, 1-(4-(4-((8-methoxy-2H-pyrazolo[3,4-c]quinolin-4-yl)amino)-1H-pyrazol-1-yl)piperidin-1-yl)ethan-1-one] yielded an IC50 of 0.01 to 0.1 µM.

For COCCn1cc(Nc2nc3ccc(S(C)(=O)=O)cc3c3cn[nH]c23)cn1 [Example 113, N-(1-(2-methoxyethyl)-1H-pyrazol-4-yl)-8-(methylsulfonyl)-3H-pyrazolo[3,4-c]quinolin-4-amine], the IC50 was 0.01 to 0.1 µM.

COc1ccc2nc(Nc3cnn(C)n3)c3n[nH]cc3c2c1 [Example 122, 8-methoxy-N-(2-methyl-2H-1,2,3-triazol-4-yl)-2H-pyrazolo[3,4-c]quinolin-4-amine] was tested, and the IC50 was 0.1 to 1 µM.

In the case of COc1cccc2nc(Nc3cnn(C4CCOCC4)c3)c3[nH]ncc3c12 [Example 142, 9-methoxy-N-(1-(tetrahydro-2H-pyran-4-yl)-1H-pyrazol-4-yl)-3H-pyrazolo[3,4-c]quinolin-4-amine], the IC50 is reported as less than 0.01 µM.

With CN1CCC(n2cc(Nc3nc4ccc(S(C)(=O)=O)cc4c4cn[nH]c34)cn2)CC1 [Example 154, N-(1-(1-methylpiperidin-4-yl)-1H-pyrazol-4-yl)-8-(methylsulfonyl)-3H-pyrazolo[3,4-c]quinolin-4-amine] the IC50 was less than 0.01 µM.

CC(=O)N1CCC(n2cc(Nc3nc4ccc(S(C)(=O)=O)cc4c4cn[nH]c34)cn2)CC1 [Example 155, 1-(4-(4-((8-(methylsulfonyl)-3H-pyrazolo[3,4-c]quinolin-4-yl)amino)-1H-pyrazol-1-yl)piperidin-1-yl)ethan-1-one] showed an IC50 of less than 0.01 µM.

Source: US10752624B2, “Kinase inhibitors” (Origenis GmbH, priority 2012, dated 2020)
